Assays:
[1] = biological target: Serine/threonine-protein kinase LATS2 (Homo sapiens) (UniProt Q9NRM7); test: LATS2 Invitrogen Lab (UK) kinase screen (BI); conditions: Compound concentration 1.0 uM
[2] = biological target: Tyrosine-protein kinase JAK2 (Homo sapiens) (UniProt O60674); conditions: Compound concentration 1.0 uM
[3] = biological target: Serine/threonine-protein kinase 38-like (Homo sapiens) (UniProt Q9Y2H1); test: STK38L (NDR2) Invitrogen Lab (UK) kinase screen (BI); conditions: Compound concentration 1.0 uM
Serine/threonine-protein kinase 38-like (Homo sapiens), sequence (Q9Y2H1 2-464 limits assumed): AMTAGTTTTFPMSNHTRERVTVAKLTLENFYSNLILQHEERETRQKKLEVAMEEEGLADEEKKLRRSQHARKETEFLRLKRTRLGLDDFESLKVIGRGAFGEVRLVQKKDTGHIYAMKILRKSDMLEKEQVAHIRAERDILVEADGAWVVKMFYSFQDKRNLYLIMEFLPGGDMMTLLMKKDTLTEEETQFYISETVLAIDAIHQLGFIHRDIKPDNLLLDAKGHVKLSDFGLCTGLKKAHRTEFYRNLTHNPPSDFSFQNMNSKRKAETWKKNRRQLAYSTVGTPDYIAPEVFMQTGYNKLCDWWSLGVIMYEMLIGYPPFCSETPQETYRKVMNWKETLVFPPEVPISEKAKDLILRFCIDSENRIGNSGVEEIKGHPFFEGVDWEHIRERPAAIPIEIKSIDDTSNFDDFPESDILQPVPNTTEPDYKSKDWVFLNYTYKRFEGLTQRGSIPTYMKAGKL

[4] = biological target: T1, D(4) dopamine receptor (Homo sapiens) (UniProt P21917); conditions: Compound concentration 10.0 uM
T1 sequence (whole entry): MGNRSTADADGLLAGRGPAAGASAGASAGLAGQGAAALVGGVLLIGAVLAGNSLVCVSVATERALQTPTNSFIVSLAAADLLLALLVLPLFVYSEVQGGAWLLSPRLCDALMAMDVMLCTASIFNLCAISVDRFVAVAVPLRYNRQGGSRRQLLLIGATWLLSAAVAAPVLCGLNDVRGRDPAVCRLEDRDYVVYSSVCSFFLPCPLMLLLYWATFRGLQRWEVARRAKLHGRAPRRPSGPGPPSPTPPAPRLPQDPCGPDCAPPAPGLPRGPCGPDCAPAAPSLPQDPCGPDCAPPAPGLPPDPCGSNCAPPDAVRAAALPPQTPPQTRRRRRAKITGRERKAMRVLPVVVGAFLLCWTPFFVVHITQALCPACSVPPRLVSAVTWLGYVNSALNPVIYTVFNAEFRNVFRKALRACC

[5] = biological target: Cyclin-G-associated kinase (Homo sapiens, UniProt O14976); test: NanoBRET (SGC-FFM) (GAK)
Cyclin-G-associated kinase, sequence (O14976 whole entry): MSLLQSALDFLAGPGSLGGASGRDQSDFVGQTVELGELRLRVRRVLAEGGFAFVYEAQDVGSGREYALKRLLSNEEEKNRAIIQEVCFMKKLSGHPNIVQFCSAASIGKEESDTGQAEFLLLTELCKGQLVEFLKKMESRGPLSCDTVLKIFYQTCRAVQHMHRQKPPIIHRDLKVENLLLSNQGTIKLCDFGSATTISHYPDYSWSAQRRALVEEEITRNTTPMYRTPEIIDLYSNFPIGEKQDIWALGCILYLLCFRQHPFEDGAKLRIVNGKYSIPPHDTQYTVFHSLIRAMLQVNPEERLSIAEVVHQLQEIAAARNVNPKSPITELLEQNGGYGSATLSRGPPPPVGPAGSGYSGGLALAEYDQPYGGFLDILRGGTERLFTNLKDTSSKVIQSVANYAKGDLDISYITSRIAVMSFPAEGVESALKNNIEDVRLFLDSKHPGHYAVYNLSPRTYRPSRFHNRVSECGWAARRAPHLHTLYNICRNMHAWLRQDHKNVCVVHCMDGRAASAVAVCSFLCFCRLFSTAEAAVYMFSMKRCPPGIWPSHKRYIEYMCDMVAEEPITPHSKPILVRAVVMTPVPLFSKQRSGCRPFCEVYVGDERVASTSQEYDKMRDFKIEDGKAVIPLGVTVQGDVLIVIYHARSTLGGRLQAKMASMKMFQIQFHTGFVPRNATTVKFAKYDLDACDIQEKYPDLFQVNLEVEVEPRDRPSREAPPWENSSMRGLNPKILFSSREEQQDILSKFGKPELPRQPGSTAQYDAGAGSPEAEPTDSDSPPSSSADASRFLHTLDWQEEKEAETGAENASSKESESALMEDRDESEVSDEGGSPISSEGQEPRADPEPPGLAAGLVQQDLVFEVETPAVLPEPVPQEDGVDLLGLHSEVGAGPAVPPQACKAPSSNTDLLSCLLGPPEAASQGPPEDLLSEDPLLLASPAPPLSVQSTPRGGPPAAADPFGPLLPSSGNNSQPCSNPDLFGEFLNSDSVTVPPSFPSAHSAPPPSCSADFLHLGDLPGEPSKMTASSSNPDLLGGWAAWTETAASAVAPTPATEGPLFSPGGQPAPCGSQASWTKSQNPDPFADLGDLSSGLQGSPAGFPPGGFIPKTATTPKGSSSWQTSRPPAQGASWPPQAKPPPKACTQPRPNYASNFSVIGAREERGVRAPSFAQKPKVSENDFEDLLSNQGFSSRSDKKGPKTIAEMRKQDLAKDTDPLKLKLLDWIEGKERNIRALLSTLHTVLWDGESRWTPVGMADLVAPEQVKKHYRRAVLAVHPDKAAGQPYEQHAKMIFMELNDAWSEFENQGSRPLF

[6] = biological target: Serine/threonine-protein kinase tousled-like 2 (Homo sapiens) (UniProt Q86UE8); conditions: Compound concentration 1.0 uM
[7] = biological target: CDK8/Cyclin C (Homo sapiens) (UniProt P49336+P24863); conditions: Compound concentration 1.0 uM
[8] = biological target: NUAK family SNF1-like kinase 1 (Homo sapiens) (UniProt O60285); test: NUAK1 Invitrogen Lab (UK) kinase screen (BI); conditions: Compound concentration 1.0 uM
NUAK family SNF1-like kinase 1 (Homo sapiens), sequence (O60285 whole entry): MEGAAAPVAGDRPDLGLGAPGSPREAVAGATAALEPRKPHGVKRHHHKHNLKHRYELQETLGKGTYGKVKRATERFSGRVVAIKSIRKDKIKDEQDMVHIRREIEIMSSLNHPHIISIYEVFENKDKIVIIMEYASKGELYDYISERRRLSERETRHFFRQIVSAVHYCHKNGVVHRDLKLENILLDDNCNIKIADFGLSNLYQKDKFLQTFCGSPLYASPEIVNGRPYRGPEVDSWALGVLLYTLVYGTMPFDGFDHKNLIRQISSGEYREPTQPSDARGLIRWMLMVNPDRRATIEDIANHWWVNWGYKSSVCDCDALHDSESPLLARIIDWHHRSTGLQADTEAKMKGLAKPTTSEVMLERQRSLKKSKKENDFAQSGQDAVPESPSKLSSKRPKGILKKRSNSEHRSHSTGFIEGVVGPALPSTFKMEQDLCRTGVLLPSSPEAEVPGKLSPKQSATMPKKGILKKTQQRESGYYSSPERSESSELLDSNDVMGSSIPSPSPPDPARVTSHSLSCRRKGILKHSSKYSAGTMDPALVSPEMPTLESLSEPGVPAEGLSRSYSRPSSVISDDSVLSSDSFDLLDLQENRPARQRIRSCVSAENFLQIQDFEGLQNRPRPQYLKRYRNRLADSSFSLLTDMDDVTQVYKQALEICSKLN

Tyrosine-protein kinase JAK2 (Homo sapiens), sequence (O60674 whole entry): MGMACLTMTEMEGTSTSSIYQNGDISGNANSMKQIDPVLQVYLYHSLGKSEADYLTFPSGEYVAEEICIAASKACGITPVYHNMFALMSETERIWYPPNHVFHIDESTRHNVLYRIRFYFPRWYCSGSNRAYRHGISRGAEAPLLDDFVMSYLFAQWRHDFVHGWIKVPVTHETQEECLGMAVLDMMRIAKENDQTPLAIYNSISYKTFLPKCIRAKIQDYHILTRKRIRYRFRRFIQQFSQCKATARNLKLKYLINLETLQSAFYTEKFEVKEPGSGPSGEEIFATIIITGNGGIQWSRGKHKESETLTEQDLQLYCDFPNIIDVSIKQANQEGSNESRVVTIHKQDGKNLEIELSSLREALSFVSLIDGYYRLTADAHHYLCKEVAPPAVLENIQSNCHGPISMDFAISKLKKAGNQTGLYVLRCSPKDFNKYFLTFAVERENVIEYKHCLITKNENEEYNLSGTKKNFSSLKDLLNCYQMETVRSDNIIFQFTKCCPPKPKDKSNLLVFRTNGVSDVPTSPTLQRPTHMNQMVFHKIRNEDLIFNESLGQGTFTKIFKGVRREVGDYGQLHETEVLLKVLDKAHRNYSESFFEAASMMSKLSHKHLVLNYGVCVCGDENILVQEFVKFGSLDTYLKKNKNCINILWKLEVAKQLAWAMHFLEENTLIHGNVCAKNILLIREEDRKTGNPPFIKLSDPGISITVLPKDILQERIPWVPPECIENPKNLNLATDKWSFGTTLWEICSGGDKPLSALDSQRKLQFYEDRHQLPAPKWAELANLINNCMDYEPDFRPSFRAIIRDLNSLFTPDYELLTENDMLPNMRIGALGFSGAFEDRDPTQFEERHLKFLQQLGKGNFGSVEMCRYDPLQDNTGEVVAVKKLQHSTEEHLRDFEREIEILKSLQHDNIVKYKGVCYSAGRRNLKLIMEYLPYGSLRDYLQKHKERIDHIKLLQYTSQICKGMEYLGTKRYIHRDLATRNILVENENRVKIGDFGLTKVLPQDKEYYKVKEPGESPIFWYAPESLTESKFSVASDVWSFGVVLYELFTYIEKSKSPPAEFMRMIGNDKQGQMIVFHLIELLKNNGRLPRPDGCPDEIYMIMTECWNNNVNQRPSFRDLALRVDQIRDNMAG
Serine/threonine-protein kinase LATS2 (Homo sapiens), sequence (Q9NRM7 whole entry): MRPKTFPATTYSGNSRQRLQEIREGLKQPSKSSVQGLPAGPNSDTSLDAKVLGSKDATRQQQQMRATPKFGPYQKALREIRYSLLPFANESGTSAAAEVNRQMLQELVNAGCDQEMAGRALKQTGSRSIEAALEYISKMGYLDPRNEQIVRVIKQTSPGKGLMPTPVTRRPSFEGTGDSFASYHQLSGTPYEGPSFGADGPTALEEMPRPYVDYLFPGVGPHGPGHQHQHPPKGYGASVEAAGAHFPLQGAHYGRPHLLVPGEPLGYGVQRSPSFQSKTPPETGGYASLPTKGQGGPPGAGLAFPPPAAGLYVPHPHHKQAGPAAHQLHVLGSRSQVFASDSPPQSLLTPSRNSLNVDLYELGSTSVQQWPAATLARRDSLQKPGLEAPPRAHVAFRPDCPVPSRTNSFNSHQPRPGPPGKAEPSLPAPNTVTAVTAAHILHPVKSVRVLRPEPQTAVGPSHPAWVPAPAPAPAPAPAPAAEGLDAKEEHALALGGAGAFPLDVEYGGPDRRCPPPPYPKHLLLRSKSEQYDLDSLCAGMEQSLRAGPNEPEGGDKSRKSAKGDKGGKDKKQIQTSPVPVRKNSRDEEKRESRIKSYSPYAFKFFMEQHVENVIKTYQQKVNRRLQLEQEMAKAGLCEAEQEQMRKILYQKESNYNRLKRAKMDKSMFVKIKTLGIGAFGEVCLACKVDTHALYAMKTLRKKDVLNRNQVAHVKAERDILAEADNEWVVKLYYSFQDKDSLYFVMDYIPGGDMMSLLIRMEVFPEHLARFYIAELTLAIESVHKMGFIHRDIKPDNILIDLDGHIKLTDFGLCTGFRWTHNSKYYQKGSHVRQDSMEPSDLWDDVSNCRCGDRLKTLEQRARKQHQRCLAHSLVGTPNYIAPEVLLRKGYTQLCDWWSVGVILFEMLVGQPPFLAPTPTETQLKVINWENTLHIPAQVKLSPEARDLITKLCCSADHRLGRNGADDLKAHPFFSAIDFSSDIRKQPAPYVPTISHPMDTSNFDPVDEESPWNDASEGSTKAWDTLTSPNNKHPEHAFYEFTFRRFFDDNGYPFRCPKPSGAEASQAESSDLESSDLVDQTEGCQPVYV

## CCC(F)(F)c1cc(N2CCC(S(C)(=O)=O)CC2)nc2sc(C(N)=O)c(N)c12 [BI-605906]
[1]
  residual activity: 88%
[2]
  residual activity: 94%
[3]
  residual activity: 125%
[4]
  residual activity: 95%
[5]
  IC50: 6.5 µM (not active)
[6]
  residual activity: 98%
[7]
  residual activity: 82%
[8]
  residual activity: 84%

Reference: ChEMBL document CHEMBL4800722, “Data for DCP probe BI 605906” (2021)
